According to patent US6362211B1, “Polycyclic indanylimidazoles with alpha2 adrenergic activity” (Orion Corporation, priority 2000, dated 2002):

test system: Alpha2 Adrenoceptors (alpha2AR); test: Antagonist activity on alpha2 adrenoceptors in rat vas deferens in vitro (electrically evoked twitch response); format: cell-based; conditions: isolated rat vas deferens, field stimulation; antagonist given at least five minutes before alpha2AR agonist
Protocol: Antagonist Activity on Alpha2 Adrenoceptors (alpha2AR) in Rat Vas Deferens in Vitro
Rats were killed by CO2-suffocation. Vas deferentia were dissected out and both prostatic halves were removed to tissue chambers containing Krebs-solution of the following composition (mM): NaCl 118, KCl 4.7, CaCl2 2.5, KH2PO4 1.2, MgSO4 0.6, NaHCO3 25, glucose 11.1, aerated by 5% carbogen, temperature 37° C., pH 7.4. Propranolol […] and desipramine […] were added to prevent the possible effects on […] receptors and to prevent re-uptake of released norepinephrine, respectively. Preparations were tied to the bottom hooks of the incubation chambers and the to isometric force-displacement transducers above. Electrical stimulation was started after the equilibrium period/5 minutes under a resting tension of 0.5 g) by introducing field stimulation with the following parameters: twin-pulses, voltage 70 V, frequency 0.2 Hz, delay 5 ms, duration 2 ms. […] Inhibition of the electrically evoked contractions was measured as the response to alpha2AR agonists. Antagonist was administered into the incubation medium at least five minutes before agonist. Means±SEM of percentage inhibition were calculated in the absence and in the presence of antagonist and expressed as dose-response curves. In order to express the antagonist potency, pA2-value was calculated.

Row | Structure (SMILES) | Vas deferens Alpha2 antagonistic activity, pA2
1 | COc1ccc2c(c1)C1CCCCC1(c1c[nH]cn1)C2 (stereo not shown) [Example 5(a), 4-(3-Methoxy-4b,5,6,7,8,9-hexahydrofluoren-8a-yl)-1H-imidazole] | pA2 = 6.9
2 | c1ccc2c(c1)CC1(c3c[nH]cn3)C3CCC(CC3)C21 (stereo not shown) [Example 7(f), 4-(5,8-Ethano-4b,5,6,7,8,9-hexahydro-fluoren-8a-yl)-1H-imidazole] | pA2 = 5.3
3 | c1ccc2c(c1)CC1(c3c[nH]cn3)CCCC21 (stereo not shown) [Example 1(e), 4-(2,3,3a,8-Tetrahydro-1H-cyclopenta[a]inden-8a-yl)-1H-imidazole] | pA2 = 8.4
4 | CC1CCC2(c3c[nH]cn3)Cc3ccccc3C12 (stereo not shown) [Example 2(b), 4-(3-Methyl-2,3,3a,8-tetrahydro-1H-cyclopenta[a]inden-8a-yl)-1H-imidazole] | pA2 = 7.4
5 | c1ccc2c(c1)CC1(c3c[nH]cn3)Cc3ccccc3C21 (stereo not shown) [Example 8, 4-(4b,10-Dihydro-9H-indeno[1,2-a]inden-9a-yl)-1H-imidazole] | pA2 = 7.4
6 | Oc1ccc2c(c1)C1CCCCC1(c1c[nH]cn1)C2 (stereo not shown) [Example 5(b), 8a-(1H-Imidazol-4-yl)-5,6,7,8,8a,9-hexahydro-4bH-fluoren-3-ol] | pA2 = 7.7
7 | Fc1ccc2c(c1)C1CCCCC1(c1c[nH]cn1)C2 (stereo not shown) [Example 4, 4-(3-Fluoro-4b,5,6,7,8,9-hexahydrofluoren-8a-yl)-1H-imidazole] | pA2 = 7.4
8 | C=C1CCC2(c3c[nH]cn3)Cc3ccccc3C12 (stereo not shown) [2(a), 4-(3-Methylene-2,3,3a,8-tetrahydro-1H-cyclopenta[a]inden-8a-yl)-1H-imidazole] | pA2 = 7.8
9 | OCCOCCOc1ccc2c(c1)C1CCCCC1(c1c[nH]cn1)C2 (stereo not shown) [Example 6, 2-{2-[8a-(1H-Imidazol-4-yl)-5,6,7,8,8a,9-hexahydro-4bH-fluoren-3-yloxy]-ethoxy}-ethanol] | pA2 = 6.0
10 | c1ccc2c(c1)CC1(c3c[nH]cn3)CCCCC21 (stereo not shown) [3(i), 4-(4b,5,6,7,8,9-Hexahydrofluoren-8a-yl)-1H-imidazole] | pA2 = 8.2
